Reference: ChEMBL document CHEMBL3784985, “Thiadiazole derivatives as New Class of β-glucuronidase inhibitors” (Bioorg Med Chem, 2016)

Target: T1, Beta-glucuronidase (Bos taurus, UniProt A3KMY8)
T1 sequence (A3KMY8 whole entry): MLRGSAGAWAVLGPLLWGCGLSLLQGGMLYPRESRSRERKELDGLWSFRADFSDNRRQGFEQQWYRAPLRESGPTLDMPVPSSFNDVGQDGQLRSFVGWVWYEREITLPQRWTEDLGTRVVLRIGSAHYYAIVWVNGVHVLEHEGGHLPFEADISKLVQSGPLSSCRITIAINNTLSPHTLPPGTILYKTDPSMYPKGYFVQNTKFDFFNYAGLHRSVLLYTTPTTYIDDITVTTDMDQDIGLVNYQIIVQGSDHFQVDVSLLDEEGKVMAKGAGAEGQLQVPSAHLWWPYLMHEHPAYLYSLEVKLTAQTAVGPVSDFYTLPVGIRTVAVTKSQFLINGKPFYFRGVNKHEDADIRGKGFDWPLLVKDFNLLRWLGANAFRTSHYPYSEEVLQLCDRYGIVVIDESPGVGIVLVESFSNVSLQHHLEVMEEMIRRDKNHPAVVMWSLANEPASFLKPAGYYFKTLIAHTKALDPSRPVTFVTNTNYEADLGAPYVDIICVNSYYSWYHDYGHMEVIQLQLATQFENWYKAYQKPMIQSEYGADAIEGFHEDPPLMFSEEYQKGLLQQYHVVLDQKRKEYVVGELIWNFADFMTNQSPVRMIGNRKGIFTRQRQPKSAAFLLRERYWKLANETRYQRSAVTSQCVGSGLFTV
Assay: Inhibition of bovine beta-glucuronidase assessed as p-nitrophenol formation preincubated for 30 mins followed by addition of p-nitrophenyl-beta-D-glucuronide by spectrophotometric analysis

SMILES | IC50 [µM]
Cc1ccc(Nc2nnc(-c3ccc(C(C)(C)C)cc3)s2)cc1 | 26.3
CC(C)(C)c1ccc(-c2nnc(Nc3ccc(Br)cc3)s2)cc1 | 32.2
COc1ccc(Nc2nnc(-c3ccccc3Cl)s2)cc1 | 22.6
Brc1ccc(-c2nnc(Nc3ccccc3)s2)cc1 | 40.2
COc1cc(OC)cc(-c2nnc(Nc3ccc(Cl)c(Cl)c3)s2)c1 | 19.2
COc1ccc(-c2nnc(Nc3ccc(Br)cc3)s2)c(OC)c1 | 29.7
COc1ccccc1-c1nnc(Nc2cccc(Br)c2)s1 | 49.2
COc1cccc(Nc2nnc(-c3ccc(Br)cc3)s2)c1 | 31.1
Cc1ccc(-c2nnc(Nc3cccc(Br)c3)s2)c(C)c1 | 36.1
Clc1ccc(Nc2nnc(-c3ccccc3)s2)cc1Cl | 6.28
Clc1ccccc1-c1nnc(Nc2cccc(Br)c2)s1 | 8.96
Cc1ccc(Nc2nnc(-c3ccc(C)cc3C)s2)cc1 | 34.2
Cc1ccc(Nc2nnc(-c3ccccc3Cl)s2)cc1 | 16.7
COc1ccc(-c2nnc(Nc3ccc(C)cc3)s2)c(OC)c1 | 39.3
Cc1ccc(Nc2nnc(-c3ccccc3)s2)cc1 | 48.4
COc1ccccc1-c1nnc(Nc2ccc(C)cc2)s1 | 58.1
Cc1ccc(-c2nnc(Nc3ccc(Cl)c(Cl)c3)s2)c(C)c1 | 15.6
COc1ccccc1-c1nnc(Nc2ccc(Cl)c(Cl)c2)s1 | 22.6
Cc1ccc(Nc2nnc(-c3ccc(Br)cc3)s2)cc1 | 28.6
Clc1ccc(Nc2nnc(-c3ccc(Br)cc3)s2)cc1Cl | 7.16
COc1cc(OC)cc(-c2nnc(Nc3ccc(C)cc3)s2)c1 | 50.3
Brc1ccc(-c2nnc(Nc3cccc(Br)c3)s2)cc1 | 17.3
